Laboratory results reported in patent publication US20040161391A1, “Ascorbic acid compounds as bleaching agents” (L'OREAL, priority 2002, published 2004).
Entries after “also recorded” stand apart in the source; their conditions may differ.

What was measured:
melanogenesis = test: Activity on melanogenesis (ratio of thiouracil to leucine incorporation); type: cell-based; settings: for IC50: read-out: IC50 (concentration for which a 50% inhibition of melanogenesis is observed); for Inhibitory activity on melanogenesis: relative to 100% of control, test concentration: T1 312 μM, T2 327 μM, A 230 μM, B 262 μM
Procedure: The melanogenesis-modulating effect of the compounds of formula (I) was measured according to the method described in patent application EP-0 993 826 filed by the Applicant, and also in the article by R. Schmidt, P. Krien and M. Regnier, Anal. Biochem., 235(2), 113-18, (1996).
(§1) The following were determined for each test compound:
the inhibitory activity on melanin synthesis, by estimating the ratio of the incorporation of thiouracil to the incorporation of leucine, relative to 100% of the control (the control corresponds to the test performed without test compound),
the IC50 value, which corresponds to the micromolar (μM) concentration for which a 50% inhibition of melanogenesis is observed.

[1] = Cytotoxicity by estimating the incorporation of leucine; type: cell-based
Procedure: as §1
the cytotoxicity, by estimating the incorporation of leucine, […]

[2] = tested on: melanocytes in co-culture; test: Activity on the dendricity of melanocytes (melanocyte/keratinocyte co-culture, NKlbeteb labelling); type: cell-based; settings: 7 days treatment, 100 μg per ml; test concentration: T1 312 μM, T2 327 μM, A 230 μM, B 262 μM
Procedure: The aim of this test is to show the effect of the compounds used according to the invention on the morphological modulation of melanocytes.
The melanocytes are treated immediately on inoculation with the compounds according to the invention for 7 days. The compounds are used at a dose of 100 μg per ml.
The melanocytes are labelled using the antibody NKlbeteb (green coloration), which recognizes melanosomes at any stage of maturation. The nucleus of all the cells, melanocytes and keratinocytes, is stained using propidium iodide (red coloration).
In the absence of the compounds according to the invention, the melanocytes in co-culture are highly dendritic. The pigment is visibly transferred to the neighbouring keratinocytes.

tyrosinase = target: T1, tyrosinase (Homo sapiens, UniProt P14679); settings: J. Soc. Cosmet. Chem., 42, 1991; cited from earlier work
T1 sequence (P14679 19-529): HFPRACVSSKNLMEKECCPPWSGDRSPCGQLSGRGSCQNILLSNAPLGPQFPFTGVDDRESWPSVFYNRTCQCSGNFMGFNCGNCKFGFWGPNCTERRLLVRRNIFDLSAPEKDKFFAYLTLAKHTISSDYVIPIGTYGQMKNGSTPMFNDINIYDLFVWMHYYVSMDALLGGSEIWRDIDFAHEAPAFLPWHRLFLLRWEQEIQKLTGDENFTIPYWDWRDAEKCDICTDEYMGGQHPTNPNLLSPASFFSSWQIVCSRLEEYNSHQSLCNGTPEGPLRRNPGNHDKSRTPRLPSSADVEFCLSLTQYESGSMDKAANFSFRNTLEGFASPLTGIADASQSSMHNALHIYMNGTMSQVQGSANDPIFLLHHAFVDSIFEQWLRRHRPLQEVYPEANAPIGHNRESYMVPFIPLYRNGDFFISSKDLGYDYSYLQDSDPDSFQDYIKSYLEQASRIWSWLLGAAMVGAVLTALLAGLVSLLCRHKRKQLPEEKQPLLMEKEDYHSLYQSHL

melanocytes = settings: Pigment. Cell. Res., 13, 2000; cited from earlier work

## COc1cc(/C=C/C(=O)OC2=C(O)C(C3COC(C)(C)O3)OC2=O)ccc1OC(C)=O (centres unmarked) [Compound A, 5-(2,2-dimethyl[1,3]dioxolan-4-yl)-4-hydroxy-2-oxo-2,5-dihydro-3-furanyl 3-[(4-acetoxy-3-methoxy)phenyl]acrylate]
melanogenesis
  IC50: 200 µM
[1]
  Cytotoxicity: No
[2]
  Dendricity: Bipolar
  Transfer of pigmentation: reduced; also recorded: Little

## COc1cc(/C=C/C(=O)OC2=C(O)C(C3COC(C)(C)O3)OC2=O)ccc1O (centres unmarked) [Compound B, 5-(2,2-dimethyl[1,3]dioxolan-4-yl)-4-hydroxy-2-oxo-2,5-dihydro-3-furanyl 3-[(4-hydroxy-3-methoxy)phenyl]acrylate]
melanogenesis
  IC50: 500 µM
[1]
  Cytotoxicity: No
[2]
  Dendricity: Bipolar
  Transfer of pigmentation: reduced; also recorded: Little

## O=C(/C=C/c1ccccc1)OC1=C(O)[C@@H]([C@@H](O)CO)OC1=O [Compound T2, ascorbyl 2-cinnamate]
melanogenesis
  IC50 (concentration for which a 50% inhibition of melanogenesis is observed): No effect
  Inhibitory activity on melanogenesis: No effect
[1]
  Cytotoxicity: No
[2]
  Dendricity: Multipolar
  Transfer of pigmentation: Large

## O=C1O[C@H]([C@@H](O)CO)C(O)=C1O [ascorbic acid]
tyrosinase
  Effect on tyrosinase: inhibitory effect

## O=C1O[C@H]([C@@H](O)CO)C([O-])=C1OP(=O)([O-])[O-].O=C1O[C@H]([C@@H](O)CO)C([O-])=C1OP(=O)([O-])[O-].[Mg+2].[Mg+2].[Mg+2] [magnesium ascorbyl phosphate]
melanocytes
  Dendricity of the melanocytes: reduce the dendricity
  Melanin transfer: effect on melanin transfer

## methyl 2,3-bis-acetate of ascorbic acid [Compound T1]
melanogenesis
  IC50 (concentration for which a 50% inhibition of melanogenesis is observed): No effect
  Inhibitory activity on melanogenesis: No effect
[2]
  Dendricity: Multipolar
  Transfer of pigmentation: Large
